One assay has as its system Pf. On the set-up: method as in Lanfranchi et al., 2012. The settings on record: tritiated hypoxanthine assay; ref Lanfranchi et al., 2012; cited from earlier work.
Assay [1] deals with multidrug resistant Pf K1 strain. The conditions noted are these: tritiated hypoxanthine assay; ref Figueiredo et al., 1998; Li et al., 2019; cited from earlier work.
Assay [2] has as its system chloroquine sensitive Pf NF54 strain. The settings on record: tritiated hypoxanthine assay; ref Figueiredo et al., 1998; Li et al., 2019; cited from earlier work.
In assay [3] the test system is asexual blood stage P. falciparum NF54 (drug sensitive). On the set-up: method as in Coertzen et al., 2018; Wong et al., 2019. The settings on record: SYBR Green I, mean ± SEM, ref Coertzen et al., 2018, Wong et al., 2019; cited from earlier work.
Assay [4] deals with late stage IV-V P. falciparum NF54 gametocytes. On the set-up: method as in Coertzen et al., 2018, Wong et al., 2019. The settings on record: NF54 gametocytes, luciferase, 72 h, mean ± SEM; ref Coertzen et al., 2018, Wong et al., 2019; read-out: Late stage IV-V (luc 72 h) IC50; cited from earlier work.
The subject of assay [5] is immature stage II-III P. falciparum NF54 gametocytes. On the set-up: method as in Coertzen et al., 2018, Wong et al., 2019. The conditions noted are these: NF54 gametocytes, luciferase, 48 h, mean ± SEM; ref Coertzen et al., 2018, Wong et al., 2019; read-out: Immature stage II-III (luc 48 h) IC50; cited from earlier work.
Assay [6] relates to asexual blood stage P. falciparum NF54 (drug sensitive). As to the kind of experiment: SYBR Green I proliferation assay, asexual blood stage Pf NF54. In kind it is cell-based. The settings on record: Plasmodium falciparum, NF54; asexual blood stage, SYBR Green I, 96 h, mean ± SEM; this study; read-out: IC50 NF54. The method, then: In vitro cultivation of asexual and gametocyte P. falciparum parasites: P. falciparum asexual blood stage parasites were cultivated in human erythrocytes in RPMI-1640 media supplemented with AlbuMax II under sterile conditions and in a hypoxic environment (90% N2, 5% CO2, and 5% O2) at 37°C as described previously ([Coertzen et al., 2018]; [Wong et al., 2019]). Gametocytes were produced from asexual blood stage parasites in a stage-specific manner through induction of cellular stress as described previously ([Reader et al., 2015]; [Coertzen et al., 2018]; [Wong et al., 2019]; [Reader et al., 2022]).
DHA, artesunate, artemether, chloroquine (CQ), and methylene blue (MB) were used as reference drugs. All assay conditions are as previously described ([Coertzen et al., 2018]; [Wong et al., 2019]). […] Dose-responses were determined using a 2-fold serial drug dilution on in vitro 95% ring-stage intraerythrocytic Pf parasites (1% parasitemia, 1% hematocrit) at 37°C under 90% N2, 5% CO2, and 5% O2 atmospheric conditions, detecting SYBR green I fluorescence as a marker for parasite proliferation following a 96 h drug treatment ([Smilkstein et al., 2004]; [Verlinden et al., 2011]). Activity against the Pf drug-sensitive NF54 strain and the multi drug-resistant K1 (resistant to CQ, quinine, pyrimethamine, and cycloguanil), and W2 (resistant to CQ, quinine, pyrimethamine, and cycloguanil) strains was evaluated. […] Data analysis was performed using GraphPad Prism (version 6) software, intra-assay variability was monitored with Z-factors, and acceptable inter-assay reproducibility was determined from the percent coefficient of variation (CV) ([Reader et al., 2015]). […]
Activity was determined using the SYBR Green I based fluorescence assay on asexual blood stages of the NF54 (drug sensitive), K1 and W2 (drug resistant) strains of P. falciparum. […] Also included in Table 1 for direct comparison of activities against celastrol are data for the internal reference standards MB and artemisone recorded at the same time as for celastrol. […]

Assay [7] concerns asexual blood stage P. falciparum W2 (multidrug resistant). Also noted: method as in Coertzen et al., 2018; Wong et al., 2019. The settings on record: asexual blood stage, SYBR Green I, mean ± SEM; ref Coertzen et al., 2018; Wong et al., 2019; cited from earlier work.
Assay [8] deals with asexual blood stage P. falciparum K1 (multidrug resistant). The conditions noted are these: asexual blood stage, SYBR Green I, mean ± SEM; ref Coertzen et al., 2018; Wong et al., 2019; cited from earlier work.
In assay [9] the test system is asexual blood stage Pf NF54. As to the kind of experiment: Fixed-ratio isobole drug combination assay (SYBR Green I). In kind it is cell-based, Plasmodium falciparum. The method, then:
The in vitro interactions of celastrol with artemisone and MB was determined using a fixed-ratio isobole analysis on Pf NF54 asexual parasites (SYBR Green I-based fluorescence). […] The fractional inhibitory concentration (FIC) for each drug in the combination was calculated as follows:
FIC = IC50 of drug A in combination with drug B/IC50 of drug A
The paired FIC values for the drugs in each combination were linearly plotted to provide the isobologram. The ΣFIC of FIC of drug A in combination with FIC of drug B was determined by calculating the mean FIC value, to obtain the representative FIC value for the drug combination. Data obtained were analysed in Excel, and sigmoidal dose-response curves and isobolograms were plotted using GraphPad 6.0. Experiments were performed in triplicate, and repeated 3 times.
As previously recorded for each of artemiside and artemisone in combination with MB ([Coertzen et al., 2018]), drug-drug interactions were monitored through evaluation of fractional inhibitory concentration (FIC) as determined by isobolograms. A mean ΣFIC<1.0 represents a synergistic interaction, >1.3 an antagonistic interaction and ΣFIC = 1 an indifferent or additive interaction. Isobologram analysis of the combinations of each of artemisone and MB in combination with celastrol was performed against the asexual stages of Pf NF54 using the SYBR Green I based assay. In Table 3 are shown the calculated FIC values for the independent combinations at each ratio as well as the ∑FIC values for each combination. In Figure 5 are presented the independent isoboles for each drug combination.

Read-outs that look alike come from different tables or passages of the source.

With `CC1=CC(=O)c2ccccc2C1=O` [menadione], the IC50 with Pf is 9600 to 12000 nM.
For `COC(=O)[C@]1(C)CC[C@]2(C)CC[C@]3(C)C4=CC=C5C(=CC(=O)C(O)=C5C)[C@]4(C)CC[C@@]3(C)[C@@H]2C1` [Pristimerin, pristimerin, reference compound], the IC50 is 409 nM in assay [1] and 583 nM in assay [2].
Take `CN(C)c1ccc2nc3ccc(=[N+](C)C)cc-3sc2c1` [Methylene Blue, methylene blue, reference compound]: the IC50 in assay [3] was 5 nM; in [4], 143 ± 16.7 nM; in [5] it was 95 ± 11.3 nM; in [6], 5.9 ± 0.8 nM; in assay [7], 5.13 ± 0.31 nM; in assay [8], 6.45 ± 0.3 nM. Further, the FIC stood at 0.70 in [9] (MB:celastrol drug ratio 20:80, Pf NF54); 0.67 in [9] (MB:celastrol drug ratio 40:60, Pf NF54); 0.66 in [9] (MB:celastrol drug ratio 60:40, Pf NF54); 0.79 in assay [9] (MB:celastrol drug ratio 80:20, Pf NF54).

By IC50 is commonly meant the midpoint of a concentration-inhibition curve.
